From patent US20220117266A1, “NICKEL CHELATION THERAPY” (priority 2019, published 2022) come the findings set out here.

One assay deals with Aβ40 peptide (Homo sapiens, UniProt P05067). Kind of assay: Isothermal titration calorimetry. It is filed as binding. Also noted: purchased rPeptides, Watkinsville, Ga., USA kit #A-1180-1; host or cells: E. coli. The note with it: 1 mM DMG injected instead of nickel; data not shown. The source says:
Nickel binding to human recombinant Aβ40 peptide is confirmed by isothermal titration calorimetry. Isothermal titration calorimetry (ITC) has been already used to analyze copper or zinc binding to various Aβ peptides, including Ab40 (Talmard et al. Biochemistry 46, 13658-13666 (2007); Sacco et al. JBIC Journal of Biological Inorganic Chemistry 17, 531-541 (2012); Hatcher et al. The journal of physical chemistry B 112, 8160-8164 (2008)). In the current study, we used ITC to determine whether nickel can bind the Aβ40 peptide. The peptide (same used in ThT-based aggregation assays) was present in the sample cell at a concentration of 20 μM. Twenty injections of NiSO4 (1 mM solution, 5 μM increments in sample cell) were performed every 5 min under constant stirring (350 rpm) at 25° C., and the heat release was measured (FIG. 9). The heat release profile indicates Ni binding to the peptide (FIG. 9, top Panel).
Isothermal Titration Calorimetry. […] Briefly, 1 mg of lyophilized Aβ40 peptide (#A-1157-2, rPeptides) was resuspended with 1% NH4OH to a concentration of 250 μM, sonicated for 15-20 sec, before being diluted to a final concentration of 20 μM Aβ40 using ddH2O and TBS 10×, pH 7.4 (working buffer: NH4OH 0.2%, TBS 1×, pH 7.4 (“NTBS”)). […] All samples were degassed for 15 min at 25° C. before use. Titration was initiated using a program for 20 injections (2.38 μL each, every 5 min) with continuous stirring (350 rpm) at constant temperature (25° C.). ITC data were analyzed using NanoAnalyze 1.2 software (TA Instruments). Data obtained with the control experiment (Aβ40 peptide in sample cell, buffer in syringe) were subtracted from each experiment to account for any injection-related heat change.

The subject of assay [1] is Klebsiella pneumoniae ATCC BAA2472. Kind of assay: Biofilm inhibition assay (crystal violet). It is filed as cell-based. The note with it: 18 hours with DMG. As to the method: (§1) Biofilm inhibition assay. S. Typhimurium and K. pneumoniae cultures were adjusted to an optical density (OD600) of 0.1 in fresh LB broth. H. pylori culture was adjusted to an OD600 of 0.15 in brain heart infusion (BHI) supplemented with 0.4% β-cyclodextran. […] Plates containing S. Typhimurium and K. pneumoniae were incubated at 37° C. aerobically without shaking for 18 hours. Plates containing H. pylori were incubated at 37° C. microaerobically without shaking for 48 hours. After incubation with (Na2DMG) a crystal violet biofilm assay was performed as previously described with modifications (Kwasny et al. 2010. Current Protocols in Pharmacology 50:13A. 8.1-13A. 8.23). Briefly, supernatant was removed from the wells. Next, adherent cells were gently washed with phosphate-buffered saline (PBS) and allowed to air dry for 15 minutes. Cells were then heat fixed for one hour at 60° C. before staining with 0.5% crystal violet for 5 minutes. After the crystal violet was thoroughly washed from the wells with distilled deionized water, cells were air dried for 15 minutes. Acetic acid (33%) was then added to the wells to solubilize the crystal violet. The crystal violet-acetic acid solution was transferred to a clean 96 well plate and the OD600 was measured.

For assay [2], the system named is Helicobacter pylori 43504. In words: Biofilm inhibition assay (crystal violet). It is filed as cell-based. As to conditions: 48 hours with DMG. As to the method:
as §1

Chain of Aβ40 peptide (P05067 672-711): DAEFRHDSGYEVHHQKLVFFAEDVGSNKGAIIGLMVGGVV

With `CC(=NO)C(C)=NO` [DMG, dimethylglyoxime], at Aβ40 peptide, the “binding to Aβ40 peptide (ITC)” value is on record as “cannot bind to the peptide”. In addition, the biofilm formation entry in assay [1] and in assay [2] was “able to inhibit biofilm formation” throughout.
